Here are results for 52 molecules from US10336729B2, “4-cyano-benzyl carbamimidoylcarbamate derivatives and their use as AOC3 inhibitors” (Boehringer Ingelheim International GmbH, priority 2016, dated 2019).

AOC3, sequence (Q16853 whole entry): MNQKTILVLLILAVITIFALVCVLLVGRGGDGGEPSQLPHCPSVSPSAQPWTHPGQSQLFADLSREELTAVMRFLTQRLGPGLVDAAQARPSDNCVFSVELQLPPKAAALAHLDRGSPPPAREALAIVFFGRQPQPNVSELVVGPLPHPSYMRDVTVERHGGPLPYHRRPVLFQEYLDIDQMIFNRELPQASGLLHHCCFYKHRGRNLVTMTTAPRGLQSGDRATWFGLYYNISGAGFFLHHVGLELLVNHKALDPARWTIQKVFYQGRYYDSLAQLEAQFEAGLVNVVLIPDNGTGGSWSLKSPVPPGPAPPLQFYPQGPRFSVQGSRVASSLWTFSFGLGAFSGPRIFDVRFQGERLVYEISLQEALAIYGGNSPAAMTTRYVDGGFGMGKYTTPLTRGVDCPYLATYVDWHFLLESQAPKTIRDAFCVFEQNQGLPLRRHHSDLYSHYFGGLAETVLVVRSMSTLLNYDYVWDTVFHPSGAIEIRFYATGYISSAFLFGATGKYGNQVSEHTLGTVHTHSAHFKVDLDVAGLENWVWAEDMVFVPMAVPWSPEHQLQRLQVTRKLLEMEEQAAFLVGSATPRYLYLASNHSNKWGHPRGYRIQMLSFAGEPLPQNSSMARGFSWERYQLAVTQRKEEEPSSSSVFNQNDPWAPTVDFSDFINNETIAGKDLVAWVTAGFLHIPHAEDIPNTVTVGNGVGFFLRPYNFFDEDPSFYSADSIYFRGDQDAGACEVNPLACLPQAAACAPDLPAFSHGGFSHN

The target of the experiment is AOC3 (Homo sapiens (Human), UniProt Q16853). Nature of the experiment: MAO-Glo AOC3 assay. It is filed as biochemical. The conditions noted are these: recombinant CHO cells overexpressing AOC3 enzyme. An excerpt:
The MAO-Glo™ Assay (commercial available from PROMEGA, #V1402) provides a sensitive method for the measurement of monoamine oxidase (MAO) activity (Valley, M. P. et al., 2006, Anal. Biochem. 359: 238-246) from a variety of tissues, biofluids or recombinant expressed or purified enzymes. As substrate a derivate of the beetle luciferin ((4S)-4,5-dihydro-2-(6-hydroxybenzothiazolyl)-4-thiazole-carboxylic acid) is used, which is oxidized at a primary amine moiety. After a spontaneous elimination and a catalyzed esterase reaction, the turnover of the luciferine by the luciferase is recorded as a signal of AOC3 activity.
An aliquot of 3 μL of the compound dilution is added to a 384 well plate (Optiplate, PS, flat bottom, white, PERKIN ELMER, #6007290) with a final DMSO concentration of 6.6%. Recombinant CHO cells, overexpressing the human (1500 cells/well), mouse (1000 cells/well) or rat (500 cells/well) AOC3 enzyme are diluted in reaction buffer and added in a volume of 15 μL to the wells. After incubation for 20 minutes at 37° C., 2 μL of MAO substrate (dissolved in DMSO at 16 mM, adjusted to assay concentration in reaction buffer to a final assay concentration of 20 μM) is added and further incubated for 60 minutes at 37° C. The turnover of the substrate is determined by the addition of 20 μL of the detection-mix which was generated by the addition of reconstitution buffer with esterase (PROMEGA, #V1402) to the luciferine detection reagent (PROMEGA, #V1402). After an incubation period of 20 minutes, the luminescent signal is measured with Envision 2104 Multilabel Reader (PERKIN ELMER).
As usually defined, the IC50 is the concentration that gives 50% inhibition. With `Cc1cnc(C2=CCN(c3c(C#N)ccc(COC(=O)NC(=N)N)c3F)CC2)nc1` [Example 1.075], the IC50 was found to be 85 nM. As for `N#Cc1ccc(COC(=O)NC(=N)N)c(F)c1N1CCN(c2ccc(C(N)=O)cc2)CC1` [Example 1.058], the IC50 was determined as 71 nM. On to `CC(=O)N1CCC(C2CN(c3c(C#N)ccc(COC(=O)NC(=N)N)c3F)C2)CC1` [Example 1.010], for which the IC50 was found to be 25 nM.

For `N#Cc1ccc(COC(=O)NC(=N)N)c(F)c1N1CCN(c2ccc(C(F)(F)F)cc2)CC1` [Example 1.073], the IC50 stood at 103 nM. The value for `CC(=O)N1CCC(C2CCN(c3c(C#N)ccc(COC(=O)NC(=N)N)c3F)CC2)CC1` [Example 1.014] was 4 nM; that for `N#Cc1ccc(N2CCN(c3c(C#N)ccc(COC(=O)NC(=N)N)c3F)CC2)nc1` [Example 1.055] was 115 nM; that for `Cc1ccc(N2CCN(c3c(C#N)ccc(COC(=O)NC(=N)N)c3F)CC2)cc1C` [Example 1.086] was 149 nM. The value for `Cc1ccc(N2CCN(c3c(C#N)ccc(COC(=O)NC(=N)N)c3F)CC2)nc1` [Example 1.039] was 42 nM; that for `CN1CCN(C2CCN(c3c(C#N)ccc(COC(=O)NC(=N)N)c3F)CC2)CC1=O` [Example 1.018] was 169 nM. The value for `COc1cnc(C2=CCN(c3c(C#N)ccc(COC(=O)NC(=N)N)c3F)CC2)nc1` [Example 1.067] was 77 nM. `N#Cc1ccc(COC(=O)NC(=N)N)c(F)c1N1CC=C(c2ccccc2)CC1` [Example 1.046]: the IC50 came out at 27 nM. Regarding `COc1cccc(N2CCN(c3c(C#N)ccc(COC(=O)NC(=N)N)c3F)CC2)c1` [Example 1.021], the IC50 was found to be 21 nM.

Consider `CCOc1cc(C2CCN(c3c(C#N)ccc(COC(=O)NC(=N)N)c3F)CC2)ccn1` [Example 1.016], for which the half-maximal inhibitory concentration (IC50) was determined as 12 nM. The value for `N#Cc1ccc(COC(=O)NC(=N)N)c(F)c1N1CC=C(c2ncco2)CC1` [Example 1.043] was 17 nM; that for `N#Cc1ccc(COC(=O)NC(=N)N)c(F)c1N1CCN(C2CCCC2)C(=O)C1` [Example 1.053] was 15 nM. The value for `N#Cc1ccc(COC(=O)NC(=N)N)c(F)c1N1C2CCC1CC(c1ccccc1)C2` (stereo not shown) [Example 1.077] was 293 nM; that for `N#Cc1ccc(COC(=O)NC(=N)N)c(F)c1N1CCC(c2ccc(C(=O)O)cc2)CC1` [Example 1.035] was 4 nM. The value for `N#Cc1ccc(C2CN(c3c(C#N)ccc(COC(=O)NC(=N)N)c3F)C2)cc1` [Example 1.013] was 19 nM; that for `N#Cc1ccc(COC(=O)NC(=N)N)c(F)c1N1CCN(C2CCOCC2)CC1` [Example 1.038] was 579 nM. On to `N#Cc1ccc(COC(=O)NC(=N)N)c(F)c1N1CCC(c2ncc(Cl)cn2)CC1` [Example 1.037], for which the 50% inhibitory concentration (IC50) stood at 54 nM. The value for `N#Cc1ccc(COC(=O)NC(=N)N)c(F)c1N1CCC(c2ccc(C(F)(F)F)cc2)CC1` [Example 1.084] was 502 nM; that for `N#Cc1ccc(COC(=O)NC(=N)N)c(F)c1N1CCN(c2ccncn2)CC1` [Example 1.001] was 7 nM; that for `Cc1cc(C)cc(N2CCN(c3c(C#N)ccc(COC(=O)NC(=N)N)c3F)CC2)c1` [Example 1.052] was 146 nM.

As to `N#Cc1ccc(COC(=O)NC(=N)N)c(F)c1N1CCN(c2ccccc2F)CC1` [Example 1.059], the IC50 amounted to 151 nM. The value for `N#Cc1ccc(COC(=O)NC(=N)N)c(F)c1N1CCC(c2ccccc2)CC1` [Example 1.029] was 71 nM; that for `N#Cc1ccc(COC(=O)NC(=N)N)c(F)c1N1CCN(c2ccnnc2)CC1` [Example 1.006] was 5 nM; that for `Cc1cccc(C2CCN(c3c(C#N)ccc(COC(=O)NC(=N)N)c3F)CC2)c1` [Example 1.047] was 65 nM.

As to `COc1cnc(C2CCN(c3c(C#N)ccc(COC(=O)NC(=N)N)c3F)CC2)nc1` [Example 1.032], the IC50 is 110 nM. The value for `CC(=O)N1CCC(N2CCN(c3c(C#N)ccc(COC(=O)NC(=N)N)c3F)CC2)CC1` [Example 1.008] was 397 nM; that for `N#Cc1ccc(COC(=O)NC(=N)N)c(F)c1N1CCN(c2cnccn2)CC1` [Example 1.007] was 10 nM; that for `N#Cc1ccc(COC(=O)NC(=N)N)c(F)c1N1CCC(c2ccc(F)cc2)CC1` [Example 1.031] was 70 nM.

For `COc1ccc(C2CCN(c3c(C#N)ccc(COC(=O)NC(=N)N)c3F)CC2)cc1` [Example 1.048], the half-maximal inhibitory concentration (IC50) was found to be 82 nM.

With `N#Cc1ccc(COC(=O)NC(=N)N)c(F)c1N1CCC(c2nnco2)CC1` [Example 2.006], the IC50 came to 33 nM. The value for `N#Cc1ccc(COC(=O)NC(=N)N)c(F)c1N1CCC2(CC1)CC(=O)Nc1ncccc12` [Example 2.002] was 93 nM; that for `N#Cc1ccc(COC(=O)NC(=N)N)c(F)c1N1CCN(c2ncncn2)CC1` [Example 1.082] was 57 nM; that for `COC(=O)N1CCC(C2CCN(c3c(C#N)ccc(COC(=O)NC(=N)N)c3F)CC2)CC1` [Example 1.027] was 4 nM.

Consider `Cc1ccc(N2CCN(c3c(C#N)ccc(COC(=O)NC(=N)N)c3F)CC2)cc1` [Example 1.041], for which the IC50 was determined as 177 nM. The value for `N#Cc1ccc(COC(=O)NC(=N)N)c(F)c1N1CCC(C2CCOCC2)CC1` [Example 1.054] was 20 nM; that for `COc1ncc(N2CCN(c3cc(COC(=O)NC(=N)N)cc(F)c3C#N)CC2)cn1` [Example 1.020] was 70 nM. The value for `N#Cc1ccc(COC(=O)NC(=N)N)c(F)c1N1CCN(c2ccccc2)C(=O)C1` [Example 1.065] was 131 nM; that for `COc1ccc(N2CCN(c3c(C#N)ccc(COC(=O)NC(=N)N)c3F)CC2)cc1` [Example 1.074] was 128 nM. The value for `N#Cc1ccc(COC(=O)NC(=N)N)c(F)c1N1CCC(N2CCC(O)CC2)CC1` [Example 1.089] was 56 nM; that for `Cc1cnc(C2CCN(c3c(C#N)ccc(COC(=O)NC(=N)N)c3F)CC2)o1` [Example 2.005] was 20 nM. On to `Cc1cccc(N2CCN(c3c(C#N)ccc(COC(=O)NC(=N)N)c3F)CC2)c1` [Example 1.066], for which the 50% inhibitory concentration (IC50) is 20 nM. The value for `N#Cc1ccc(COC(=O)NC(=N)N)c(F)c1N1CCC(N2CCC(C(N)=O)CC2)CC1` [Example 1.024] was 50 nM; that for `N#Cc1ccc(N2CCN(c3c(C#N)ccc(COC(=O)NC(=N)N)c3F)CC2)c(F)c1` [Example 1.045] was 29 nM; that for `CN(C)Cc1ccc(C2CCN(c3c(C#N)ccc(COC(=O)NC(=N)N)c3F)CC2)cc1` [Example 1.044] was 10 nM. The value for `CCOc1ccc(C2CCN(c3c(C#N)ccc(COC(=O)NC(=N)N)c3F)CC2)cn1` [Example 1.080] was 20 nM; that for `N#Cc1ccc(COC(=O)NC(=N)N)c(F)c1N1CCC(c2cn3ccccc3n2)CC1` [Example 1.025] was 5 nM. The value for `CC(=O)N[C@@H](C)c1ccc(C2CN(c3c(C#N)ccc(COC(=O)NC(=N)N)c3F)C2)cc1` [Example 1.015] was 19 nM. In the case of `CS(=O)(=O)N1CCC(C2CN(c3c(C#N)ccc(COC(=O)NC(=N)N)c3F)C2)CC1` [Example 1.004], the half-inhibitory concentration (IC50) worked out at 24 nM. The value for `N#Cc1ccc(COC(=O)NC(=N)N)c(F)c1N1CCC(c2ccc(Cl)cc2)CC1` [Example 1.049] was 102 nM.
